Assay results published in PubChem BioAssay AID248 (DTP/NCI, 2004).
“And” between values parts separate entries of the source, which are not always exact repeats. Identical values can stand only once. Toxic doses and inconclusive results are not listed. No stated cut-off is given here; in the data, active means T/C of 150% or more; inactive means T/C below 125%. Square brackets hold non-standard residues; d marks the D form. Peptide text beside a SMILES is read from it. ξ: configuration not given here. ξN = NC(=O)CC(N)C(=O)O

Test system: L1210 leukemia ip in BDF1 mice, survival T/C
Assay: NCI In Vivo Anticancer Drug Screen. Data for tumor model L1210 Leukemia (intraperitoneal) in B6D2F1 (BDF1) mice
Conditions: endpoint: mean survival time, higher = longer survival
Summary of the method: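 Value reflects the ratio of survival in compound-treated mice to survival in vehicle-treated controls, with both groups carrying the same transplanted tumor.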

[1] = dose: 100.0 mg/kg/injection, schedule: Q04DX003 (ip), vehicle: saline
[2] = dose: 200.0 mg/kg/injection, schedule: Q04DX003 (ip), vehicle: saline
[3] = dose: 100.0 mg/kg/injection, schedule: Q01DX009 (ip), vehicle: Klucel (hydroxypropylcellulose) (HPC)
[4] = dose: 100.0 mg/kg/injection, schedule: Q04DX003 (ip), vehicle: Klucel (hydroxypropylcellulose) (HPC)
[5] = dose: 200.0 mg/kg/injection, schedule: Q01DX009 (ip), vehicle: Klucel (hydroxypropylcellulose) (HPC)
[6] = dose: 200.0 mg/kg/injection, schedule: Q04DX003 (ip), vehicle: Klucel (hydroxypropylcellulose) (HPC)
[7] = dose: 400.0 mg/kg/injection, schedule: Q04DX003 (ip), vehicle: Klucel (hydroxypropylcellulose) (HPC)
[8] = dose: 100.0 mg/kg/injection, schedule: Q01DX001 (ip), vehicle: other
[9] = dose: 200.0 mg/kg/injection, schedule: Q01DX001 (ip), vehicle: other
[10] = dose: 400.0 mg/kg/injection, schedule: Q01DX001 (ip), vehicle: other
[11] = dose: 100.0 mg/kg/injection, schedule: Q01DX009 (ip), vehicle: saline
[12] = dose: 200.0 mg/kg/injection, schedule: Q01DX009 (ip), vehicle: saline
[13] = dose: 400.0 mg/kg/injection, schedule: Q01DX009 (ip), vehicle: saline
[14] = dose: 100.0 mg/kg/injection, schedule: Q04DX003 (ip), vehicle: saline with Tween-80
[15] = dose: 200.0 mg/kg/injection, schedule: Q04DX003 (ip), vehicle: saline with Tween-80
[16] = dose: 400.0 mg/kg/injection, schedule: Q04DX003 (ip), vehicle: saline with Tween-80
[17] = dose: 50.0 mg/kg/injection, schedule: Q01DX009 (ip), vehicle: Klucel (hydroxypropylcellulose) (HPC)
[18] = dose: 100.0 mg/kg/injection, schedule: Q01DX001 (ip), vehicle: Klucel (hydroxypropylcellulose) (HPC)
[19] = dose: 200.0 mg/kg/injection, schedule: Q01DX001 (ip), vehicle: Klucel (hydroxypropylcellulose) (HPC)
[20] = dose: 100.0 mg/kg/injection, schedule: Q01DX001 (ip), vehicle: saline with Tween-80
[21] = dose: 200.0 mg/kg/injection, schedule: Q01DX001 (ip), vehicle: saline with Tween-80
[22] = dose: 12.5 mg/kg/injection, schedule: Q04DX003 (ip), vehicle: Klucel (hydroxypropylcellulose) (HPC)
[23] = dose: 25.0 mg/kg/injection, schedule: Q04DX003 (ip), vehicle: Klucel (hydroxypropylcellulose) (HPC)
[24] = dose: 50.0 mg/kg/injection, schedule: Q04DX003 (ip), vehicle: Klucel (hydroxypropylcellulose) (HPC)

Measured: T/C

COc1ccc(CC(=O)NNC(=O)C2(C(C)C)OC3(O)CCCCN3C2=O)cc1OC (stereo unspecified)
inactive: dose: 25.0 mg/kg/injection, schedule: Q04DX003 (ip), vehicle: saline 101 % of control | dose: 50.0 mg/kg/injection, schedule: Q04DX003 (ip), vehicle: saline 92 % of control | [1] 106 % of control | [2] 92 % of control

Cc1c(Cl)cccc1NC(=O)c1ccccc1C(=O)O
inactive: [3] 98 % of control | [4] 96 % of control | [5] 104 % of control | [6] 100 % of control | dose: 400.0 mg/kg/injection, schedule: Q01DX009 (ip), vehicle: Klucel (hydroxypropylcellulose) (HPC) 102 % of control | [7] 102 % of control

Clc1ccc(N2CCN(CCCN3CCN(c4cccc(Cl)c4)CC3)CC2)cc1
inactive: [4] 88 % of control | [6] 91 % of control

CC(C)(CC(=O)O)NC(=O)c1ccccc1
inactive: [8] 95 % of control | [9] 106 % of control | [10] 103 % of control

CCc1n[nH]c(C(N)=O)c1O
inactive: dose: 100.0 mg/kg/injection, schedule: Q01DX001 (ip), vehicle: gum acacia 103 % of control | [11] 108 % of control | dose: 200.0 mg/kg/injection, schedule: Q01DX001 (ip), vehicle: gum acacia 101 % of control | [12] 104 % of control | dose: 400.0 mg/kg/injection, schedule: Q01DX001 (ip), vehicle: gum acacia 106 % of control | [13] 100 % of control

Cc1ccc(C)c(C(C)NC(=O)NCCCl)c1 (stereo unspecified)
inactive: [4] 91 % of control | [6] 88 % of control | [7] 96 % of control

Cc1ccc(CN(CC(=O)O)S(C)(=O)=O)cc1
inactive: dose: 100.0 mg/kg/injection, schedule: Q01DX009 (ip), vehicle: other 105 % of control | dose: 100.0 mg/kg/injection, schedule: Q04DX003 (ip), vehicle: other 95 % of control | dose: 200.0 mg/kg/injection, schedule: Q01DX009 (ip), vehicle: other 98 % of control | dose: 200.0 mg/kg/injection, schedule: Q04DX003 (ip), vehicle: other 97 % of control | dose: 400.0 mg/kg/injection, schedule: Q01DX009 (ip), vehicle: other 110 % of control | dose: 400.0 mg/kg/injection, schedule: Q04DX003 (ip), vehicle: other 101 % of control

COc1cc2c(cc1OC)-c1ncnc(-c3ccccc3)c1C2
inactive: [4] 95 % of control | [6] 94 % of control | [7] 101 % of control

NCC(=O)NC(CC(N)=O)C(=O)O (stereo unspecified) (H-Gly-[ξN]-OH)
inactive: [11] 97 % of control | [12] 102 % of control | [13] 97 % of control

CCCCCCCCCCCCCCCCC(Oc1ccc(Cl)cc1Cl)C(=O)O (stereo unspecified)
inactive: [4] 102 % of control | [6] 98 % of control | [7] 101 % of control

Brc1ccc(/C(=N/Nc2ccccc2)Oc2ccccc2)cc1
inactive: [14] 94 % of control | [15] 94 % of control | [16] 102 % of control

CCCCCCCCP(=O)(N1CC1C)N1CC1C (stereo unspecified)
inactive: dose: 25.0 mg/kg/injection, schedule: Q01DX009 (ip), vehicle: saline 98 % of control | dose: 50.0 mg/kg/injection, schedule: Q01DX009 (ip), vehicle: saline 104 % of control | [11] 98 % of control | [1] 91 % of control

Nc1nc(-c2ccccc2N=NN2CCCCC2)nc2ccccc12
inactive: [17] 107 % of control | [3] 118 % of control | [4] 109 % of control | [5] 107 % of control | [6] 104 % of control

CCCS(=O)(=O)C(S(C)(=O)=O)S(=O)(=O)CC (stereo unspecified)
inactive: [18] 94 % of control | [19] 98 % of control | dose: 400.0 mg/kg/injection, schedule: Q01DX001 (ip), vehicle: Klucel (hydroxypropylcellulose) (HPC) 91 % of control

CC(C)C(=O)CCC1CCCCC1
inactive: [20] 100 % of control | [21] 100 % of control | dose: 400.0 mg/kg/injection, schedule: Q01DX001 (ip), vehicle: saline with Tween-80 97 % of control

CCC(SC(CC)C(=O)O)C(=O)O (stereo unspecified)
inactive: dose: 100.0 mg/kg/injection, schedule: Q01DX001 (ip), vehicle: saline 98 % of control | dose: 200.0 mg/kg/injection, schedule: Q01DX001 (ip), vehicle: saline 94 % of control

Cc1csc(C)n1
inactive: dose: 100.0 mg/kg/injection, schedule: Q01DX009 (ip), vehicle: saline with Tween-80 95 % of control | [14] 103 % of control | dose: 200.0 mg/kg/injection, schedule: Q01DX009 (ip), vehicle: saline with Tween-80 95 % of control | [15] 107 % of control | [16] 107 % of control

CN(C)Cc1cc(C(C)(C)C)ccc1O
inactive: [1] 95 % of control | [2] 91 % of control

C1CC2OC2C1 (stereo unspecified)
inactive: [11] 104 % of control | [14] 97 % of control | [12] 108 % of control | [15] 100 % of control | [13] 105 % of control | [16] 90 % of control

CCCCCCCCSCC(=O)O
inactive: [14] 103 % of control | [15] 97 % of control

Cc1ncc(CO)c(Nc2ccccc2Cl)n1
inactive: [22] 88 % of control | [23] 102 % of control | [24] 98 % of control

c1ccc(C2=NCCN=C2c2ccccc2)cc1
inactive: [4] 97 % of control | [6] 97 % of control | [7] 93 % of control

CCOC(=O)C(C#N)NC(C)=O (stereo unspecified)
inactive: [4] 102 % of control | [6] 102 % of control | [7] 111 % of control

CC(=O)NC(C)(C)C#N
inactive: dose: 100.0 mg/kg/injection, schedule: Q04DX002 (ip), vehicle: Klucel (hydroxypropylcellulose) (HPC) 93 % of control | dose: 200.0 mg/kg/injection, schedule: Q04DX002 (ip), vehicle: Klucel (hydroxypropylcellulose) (HPC) 96 % of control | dose: 400.0 mg/kg/injection, schedule: Q04DX002 (ip), vehicle: Klucel (hydroxypropylcellulose) (HPC) 107 % of control

CN(C)CCN1C(=O)c2ccc3c4c(ccc(c24)C1=O)C(=O)N(CCN(C)C)C3=O
inactive: dose: 50.0 mg/kg/injection, schedule: Q01DX001 (ip), vehicle: Klucel (hydroxypropylcellulose) (HPC) 96 % of control | [18] 94 % of control | [19] 89 % of control

COc1cc(C)c2cc(C)cc(C)c2n1
inactive: [8] 95 % of control | [9] 101 % of control | [10] 93 % of control

c1ccc(-n2ncc3ccccc32)cc1
inactive: dose: 50.0 mg/kg/injection, schedule: Q01DX001 (ip), vehicle: saline with Tween-80 100 % of control | [20] 100 % of control | [21] 96 % of control

COc1ccc2c(c1OC)C13CCCCC1C(C2)[N+](C)(C)CC3 (stereo unspecified)
inactive: [22] 100 % of control and 91 % of control | dose: 25.0 mg/kg/injection, schedule: Q01DX009 (ip), vehicle: Klucel (hydroxypropylcellulose) (HPC) 100 % of control | [23] 94 % of control and 106 % of control | [17] 89 % of control | [24] 96 % of control and 88 % of control | [4] 98 % of control
